# Measurements: patent US20100003217A1, “Compounds and Pharmaceutical Compositions for the Treatment of Viral Infections” (priority 2008, published 2010)
# Where two headings read alike, the source gives them in different places.
# What was measured:
# [1] = Metabolite profiling in human liver microsomes; type: in vitro ADME; design: key: +: peak detected; ?: peak observed; ND: not detected; settings: 50 μM Compound 1, 2 hours
# Method: (§1) Preliminary identification of putative metabolites was conducted by comparing the retention time of observed metabolites with retention times obtained with chemically synthesized standards using the following HPLC-UV method:
# (§2) Incubations with liver microsomes, liver cytosol or pig liver esterase were conducted in a final volume of 0.1 mL per incubation time point. Pooled microsomal protein (1.0 mg/mL) suspended in incubation buffer (0.1 M potassium phosphate, pH 7.4) was incubated for 2 hours at 37° C. with 50 μM Compound 1 from a stock solution in DMSO (final DMSO concentration was 0.1%); the microsomal reaction was initiated by the addition of an NADPH regenerating system (1.3 mM NADP^+, 3.3 mM glucose-6-phosphate, 0.4 U/ml glucose-6-phosphate dehydrogenase, and 3.3 mM MgCl2, final concentrations). Incubations with no NADPH or no protein served as controls. Reactions were terminated by the addition of 0.1 mL of stop solution (acetonitrile). The samples were vortex-mixed for 30 sec and then centrifuged at 10,000×g for 10 min. The supernatant was dried using a Labconco CentriVap concentrator and the dry residue reconstituted in water, transferred to an HPLC glass vial and analyzed by HPLC-UV method 2 (described above).
# (§3) Results: Preliminary identification was accomplished by comparing LC elution of metabolites with that of available synthetic standards of putative metabolites (FIG. 2). Metabolites U1, U2 and U3 were characterized based on the retention times.
# [2] = Metabolite profile in rat liver; type: in vivo, male Sprague-Dawley rats; settings: for Percent of Dose, Liver 24 h: after [14C]Compound 1; for concentration at 2 h / concentration at 6 h / concentration at 24 h: male, Sprague-Dawley, rat, liver, read-out: liver concentration as μg equivalents/g; for % of the total radioactivity in liver / liver metabolite, % of the administered dose: rat liver; for liver metabolite, % of the administered dose: IV dose
# Method: Homogenates were prepared on dry ice in 70% methanol-30% water containing 20 mM EDTA and 20 mM EGTA (about 1× (w/v) weight of the liver) and were stored frozen. Pooled liver samples were prepared for all groups by combining a fixed percentage of the total weight of each individual animal sample homogenate for each group. Each pooled liver homogenate (3.77-5.02 g) was placed in a 50-mL polypropylene centrifuge tube and 16.0 mL of methanol:water (70:30) was added. The sample was vortexed for one minute, and then centrifuged at 11200×g for 20 minutes. The supernatant was transferred to a tube and total volume was measured. The extraction procedure was repeated three additional times. Radioactivity of each supernatant was determined by LSC of duplicate aliquots (100 μL each) for extraction recovery. Subsamples of all four extracts from each sample were taken for proportionate pooling. For Group 1, the subsamples were pooled before concentration and, for Group 2, each subsample was concentrated separately and then pooled due to the larger volumes involved. Each extract was completely dried or reduced to approximately 100 μL. Reconstitution was accomplished with methanol (20 μL) and sufficient volume of the aqueous mobile phase of HPLC method 2 such that the total volume of each reconstituted sample was 500 μL. Duplicate aliquots of the reconstituted samples were analyzed by LSC. Each sample was analyzed by HPLC method 2.
# Percent of the administered dose (% AD) for parent drug and each metabolite at each collection period=(% of the total radioactivity in the sample attributed to the metabolite)*(total radioactivity expressed as % of the administered dose, recovered during the corresponding collection period).
# Microgram equivalents/g for parent drug or metabolite at each collection period (% radioactivity for each metabolite)*(total μg equivalents/g during the corresponding collection period).
# Liver homogenates were pooled for each time point for both dose groups by proportional mixing according to the weight of the samples from individual animals. The pooled samples were extracted and prepared for HPLC analysis as described above. The abundance of metabolites was determined as a % of the administered dose and as μg equivalent/g. The data are presented in Table 54, Table 55, Table 56 and Table 57, respectively. Metabolites R^1, R^8 and R^9 were characterized based on retention time.
# [3] = Metabolite profiling in monkey liver microsomes; type: in vitro ADME; design: key: +: peak detected; ?: peak observed; ND: not detected; settings: 50 μM Compound 1, 2 hours
# Method: as §1, §2, §3
# [4] = Incubation with monkey liver cytosol; type: in vitro ADME; settings: monkey cytosol 1 mg/mL, 2 hours, 10 μM
# Method: Pooled liver cytosol (1.0 mg protein/mL) suspended in incubation buffer (0.1 M potassium phosphate, pH 7.4) was incubated for 2 hours at 37° C. with 10 μM Compound 1 from a stock solution in DMSO (final DMSO concentration was 0.1%); reaction was initiated with the addition of test article. Incubations with no protein served as control. Reactions were terminated by the addition of 0.1 mL of stop solution (acetonitrile). The samples were vortex-mixed for 30 sec and then centrifuged at 10,000×g for 10 min. The supernatant was dried using a Labconco CentriVap concentrator and the dry residue reconstituted in water, transferred to an HPLC glass vial and analyzed by HPLC-UV method 2 (described above).
# Metabolic stability of the proposed metabolites was conducted by incubating the chemically synthesized standards Compound 2, Compound 4 and Compound 3 as described above for Compound 1. When possible, formation of Compound 5 was verified by incubating samples with alkaline phosphatase (10 U) for 60 min at 37° C.
# [5] = Metabolite profiling in rat liver microsomes; type: in vitro ADME; design: key: +: peak detected; ?: peak observed; ND: not detected; settings: 50 μM Compound 1, 2 hours
# Method: as §1, §2
# Results: Preliminary identification was accomplished by comparing LC elution of metabolites with that of available synthetic standards of putative metabolites (FIG. 2). […]
# [6] = group 1 (IV dose) pooled liver, 2 h
# [7] = group 1 (IV dose) pooled liver, 2 h (Table 56)
# [8] = group 1 (IV dose) pooled liver, 6 h
# [9] = group 1 (IV dose) pooled liver, 6 h (Table 56)
# [10] = group 1 (IV dose) pooled liver, 24 h
# [11] = group 1 (IV dose) pooled liver, 24 h (Table 56)
# [12] = iv, 50 mg/kg, group 1 (IV dose) pooled liver, 2 h
# [13] = iv, 50 mg/kg, group 1 (IV dose) pooled liver, 6 h
# [14] = iv, 50 mg/kg, group 1 (IV dose) pooled liver, 24 h
# [15] = group 2 (PO dose) pooled liver, 2 h
# [16] = group 2 (PO dose) pooled liver, 6 h
# [17] = group 2 (PO dose) pooled liver, 24 h
SMILES,In vitro metabolite profile in microsomes following incubation with Compound 1 (peak detection) [1],"Percent of Dose, Liver 24 h ([2]; IV)","% AD [2, 6]","% HPLC (percent of HPLC peak area in the sample extract) [2, 6]","% HPLC (percent of HPLC peak area in the sample extract) [2, 7]","% AD [2, 8]","% HPLC (percent of HPLC peak area in the sample extract) [2, 8]","% HPLC (percent of HPLC peak area in the sample extract) [2, 9]","% AD [2, 10]","% HPLC (percent of HPLC peak area in the sample extract) [2, 10]","% HPLC (percent of HPLC peak area in the sample extract) [2, 11]","concentration at 2 h [2, 12]","concentration at 6 h [2, 13]","concentration at 24 h [2, 14]","% of the total radioactivity in liver ([2]; IV dose, 2, 6 and 24 h)","% of the total radioactivity in liver ([2]; PO dose, 2, 6 and 24 h)",In vitro metabolite profile in microsomes following incubation with Compound 1 (peak detection) [3],In vitro metabolite profile in microsomes following incubation with Compound 1 (peak detection) [5],also measured
"C[C@@]1(O)[C@H](O)[C@@H](COP(=O)(O)O)O[C@H]1n1cnc2c(=O)[nH]c(N)nc21 [Compound 5, [(2R)-2-methyl-β-D-ribofuranosyl]guanine 5′-monophosphate]",+,1.05% of Dose,9.73 % AD,62.6%,62.6%,6.39 % AD,63.1%,63.1%,1.05 % AD,59.9%,59.9%,129000 ng/g,86200 ng/g,13900 ng/g,60-63%,not detected,+,,"liver metabolite, % of the administered dose ([2]; 2 h (Group 1A)): 9.7 % AD; liver metabolite, % of the administered dose ([2]; 6 h (Group 1B)): 6.4 % AD; liver metabolite, % of the administered dose ([2]; 24 h): 1.1 % AD"
"CC(C)(CO)C(=O)SCCOP(=O)(NCc1ccccc1)OC[C@H]1O[C@@H](n2cnc3c(=O)[nH]c(N)nc32)[C@](C)(O)[C@@H]1O (mixture of isomers) [Compound 1, 3-hydroxy-2,2-dimethyl-thiopropionic acid S-(2-{[(2R,3R,4R,5R)-5-(2-amino-6-oxo-1,6-dihydro-purin-9-yl)-3,4-dihydroxy-4-methyl-tetrahydro-furan-2-ylmethoxy]-benzylamino-phosphoryloxy}-ethyl) ester]",+,,,,,,,,,,,,,,,,+,+,Residual compound following incubation with liver cytosol [4]: 100%
"C[C@@]1(O)[C@H](O)[C@@H](CO)O[C@H]1n1cnc2c(=O)[nH]c(N)nc21 [2′-C-methyl guanosine, 9-(2-C-methyl-β-D-ribofuranosyl)guanine, reference compound]",+,0.42% of Dose,2.14 % AD,13.8%,13.8%,1.48 % AD,14.6%,14.6%,0.42 % AD,23.9%,23.9%,28400 ng/g,20000 ng/g,5560 ng/g,14-24%,54-85%,+,+,"Percent of Dose, Liver 24 h ([2]; Oral): 0.09% of Dose; % AD [2, 15]: 0.15 % AD; % HPLC (percent of HPLC peak area in the sample extract) [2, 15]: 77.5%; % HPLC (percent of HPLC peak area in the sample extract) ([2]; group 2 (PO dose) pooled liver, 2 h (Table 57)): 77.5%; % AD [2, 16]: 0.32 % AD; % HPLC (percent of HPLC peak area in the sample extract) [2, 16]: 85.0%; % HPLC (percent of HPLC peak area in the sample extract) ([2]; group 2 (PO dose) pooled liver, 6 h (Table 57)): 85.0%; % AD [2, 17]: 0.09 % AD; % HPLC (percent of HPLC peak area in the sample extract) [2, 17]: 53.9%; % HPLC (percent of HPLC peak area in the sample extract) ([2]; group 2 (PO dose) pooled liver, 24 h (Table 57)): 53.9%; concentration at 2 h ([2]; po, 100 mg/kg, group 2 (PO dose) pooled liver, 2 h): 3940 ng/g; concentration at 6 h ([2]; po, 100 mg/kg, group 2 (PO dose) pooled liver, 6 h): 8760 ng/g; concentration at 24 h ([2]; po, 100 mg/kg, group 2 (PO dose) pooled liver, 24 h): 2200 ng/g"
